Laboratory results reported in PMC5474678 (Journal of medicinal chemistry, 2015).

Legend:
BRD3 BD1 = BRD3 BD1 (Homo sapiens, UniProt Q15059); assay: Competitive fluorescence polarization
BRD4 BD2 = BRD4 BD2 (Homo sapiens, UniProt O60885); assay: Competitive fluorescence polarization
BRD4 BD1 = BRD4 BD1 (Homo sapiens, UniProt O60885); assay: Competitive fluorescence polarization
BRD2 BD1 = BRD2 BD1 (Homo sapiens, UniProt P25440); assay: Competitive fluorescence polarization
MV4;11 cells = assay: Cell viability assay; type: cell-based; conditions: Homo sapiens, MV4-11, 96 h, read-out: IC50 cell growth inhibition MV4
BRD3 BD2 = BRD3 BD2 (Homo sapiens, UniProt Q15059); assay: Competitive fluorescence polarization
BRD3 BD2, sequence (Q15059 306-417): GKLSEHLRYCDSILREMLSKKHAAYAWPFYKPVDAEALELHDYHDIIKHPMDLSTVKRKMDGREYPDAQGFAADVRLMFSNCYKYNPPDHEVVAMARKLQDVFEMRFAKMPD

MOLM-13 cells = assay: Cell viability assay; type: cell-based; conditions: Homo sapiens, MOLM-13, 96 h, read-out: IC50 cell growth inhibition MOLM-13
K562 cells = assay: Cell viability assay; type: cell-based; conditions: Homo sapiens, K562, 96 h, read-out: IC50 cell growth inhibition K562

BRD2 BD1, sequence (P25440 72-205): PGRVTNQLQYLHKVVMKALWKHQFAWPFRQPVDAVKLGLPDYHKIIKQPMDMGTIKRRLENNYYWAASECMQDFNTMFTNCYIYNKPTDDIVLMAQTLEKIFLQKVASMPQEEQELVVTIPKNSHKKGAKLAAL
BRD3 BD1, sequence (Q15059 24-144): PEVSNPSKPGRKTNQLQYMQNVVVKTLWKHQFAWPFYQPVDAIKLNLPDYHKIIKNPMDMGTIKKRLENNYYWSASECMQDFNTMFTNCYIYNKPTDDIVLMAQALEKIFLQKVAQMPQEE

Ki (BRD3 BD1): 10.4 ± 1 nM
IC50 (BRD4 BD2): 129 ± 45 nM
Ki (BRD4 BD2): 38 ± 2.2 nM
IC50 (BRD4 BD1): 80.6 ± 1 nM
Ki (BRD4 BD1): 26.9 ± 1 nM
Ki (BRD2 BD1): 12.2 ± 1.7 nM
IC50 (MV4;11 cells): 34 ± 15 nM
Ki (BRD3 BD2): 9.4 ± 1 nM
IC50 (MOLM-13 cells): 144 ± 31 nM
IC50 (K562 cells): > 2000 nM
Compound: COc1cc2c(cc1-c1c(C)noc1C)[nH]c1ccnc(-c3c(-c4ccccc4)n[nH]c3C)c12 [Compound 19, 4-(8-Methoxy-1-(5-methyl-3-phenyl-1H-pyrazol-4-yl)-5H-pyrido[4,3-b]indol-7-yl)-3,5-dimethyl-isoxazole]
